The test system of assay [1] is primary human fibroblasts derived from IPF patients (LL29 cells). The assay is described as follows: Inhibition of fibrosis (αSMA staining) in TGF-β1-treated primary human fibroblasts from IPF patients. In kind it is cell-based. As to conditions: Fibroblast, 96 h, TGF-β1 20 ng/mL, 4 days. An outline of the steps:
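LL29 IPF fibroblasts in F12 with 1% FBS were stimulated with TGF-β1 (20 ng/mL) and incubated 4 days at 37 °C. SYTOX-positive dead cells were excluded, and αSMA-positive cells were counted by immunostaining as % of total. Values were normalized to TGF-β1/DMSO wells on the same plate, and EC50 derived.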

Assay [2] concerns Wnt activity (Sp5-Luc reporter, SW480 colon carcinoma cells). The assay is described as follows: Sp5-Luc Wnt reporter gene screening assay in SW480 colon carcinoma cells. As to conditions: Homo sapiens.
Procedure: The screening assay for Wnt activity is described as follows.
SW480 colon carcinoma cells were transduced with a lentiviral vector expressing luciferase with a human Sp5 promoter consisting of a sequence of eight TCF/LEF binding sites. SW480 cells stably expressing the Sp5-Luc reporter gene and a hygromycin resistance gene were selected by treatment with 150 μg/ml of hygromycin for 7 days. These stably transduced SW480 cells were expanded in cell culture and used for all further screening activities. For Sp5-Luc reporter gene assays, the cells were plated at 10,000 cells/well in 96-well plates with growth medium containing 10% fetal calf serum and incubated overnight at 37° C. and 5% CO2. […] Compound transfer from serially diluted source plates to assay plates containing the cells was accomplished using a pintool (Multimek 96, Beckman equipped with V&P Scientific FP1S50H pins) based liquid handling protocol. This protocol used a slotted pin to transfer 50 nl of compound from a source plate well to an assay plate well containing 50 μl of cells in growth medium. […] Control wells received 50 nl of DMSO treatment for normalization and calculating IC50 values. The treated cells were incubated at 37° C. and 5% CO2 for an additional forty-two hours. Following incubation, the growth medium was removed and 50 μl of BrightGlo luminescence reagent (Promega) was added to each well of the 96-well assay plates. The plates were placed on an orbital shaker for 5 min and then luminescence was quantified on the Victor3 (Perkin Elmer) plate reader.

As to `Fc1ccc(-c2cccc3[nH]c(-c4n[nH]c5cnc(-c6cncc(CN7CCCC7)c6)cc45)nc23)s1` [Compound 352, 3-(4-(5-Fluorothiophen-2-yl)-1H-benzo[d]imidazol-2-yl)-5-(5-(pyrrolidin-1-ylmethyl)pyridin-3-yl)-1H-pyrazolo[3,4-c]pyridine], it took 9990 nM to reach a half-maximal effect in assay [1] (EC50). Also, half-maximal inhibition in assay [2] (IC50) was put at 30.5 nM.

As for `O=C(Nc1cncc(-c2cc3c(-c4nc5c(-c6ccc(F)s6)cccc5[nH]4)n[nH]c3cn2)c1)C1CCC1` [Compound 358, N-(5-(3-(4-(5-Fluorothiophen-2-yl)-1H-benzo[d]imidazol-2-yl)-1H-pyrazolo[3,4-c]pyridin-5-yl)pyridin-3-yl)cyclobutanecarboxamide], the EC50 (commonly the concentration giving half of the maximal effect) in assay [1] was 9990 nM. In addition, the IC50 (in general, the concentration needed to halve the response being measured) in assay [2] is 11.6 nM.

For `Cc1ccc(-c2cccc3[nH]c(-c4n[nH]c5cnc(-c6cncc(NC(=O)CC(C)C)c6)cc45)nc23)s1` [Compound 366, 3-Methyl-N-(5-(3-(4-(5-methylthiophen-2-yl)-1H-benzo[d]imidazol-2-yl)-1H-pyrazolo[3,4-c]pyridin-5-yl)pyridin-3-yl)butanamide], in assay [1], the concentration giving a half-maximal response (EC50) was 224 nM. Moreover, half-maximal inhibition in assay [2] (IC50) required 31.1 nM.

`Cc1ccc(-c2cccc3[nH]c(-c4n[nH]c5cnc(-c6cncc(NC(=O)C(C)C)c6)cc45)nc23)s1` [Compound 373, N-(5-(3-(4-(5-Methylthiophen-2-yl)-1H-benzo[d]imidazol-2-yl)-1H-pyrazolo[3,4-c]pyridin-5-yl)pyridin-3-yl)isobutyramide] yielded an EC50 in assay [1] of 14 nM. In assay [2], this compound came in with a half-maximal inhibitory concentration (IC50) of 32.6 nM.

Regarding `Cc1ccc(-c2cccc3[nH]c(-c4n[nH]c5cnc(-c6cncc(CN7CCCCC7)c6)cc45)nc23)s1` [Compound 379, 3-(4-(5-Methylthiophen-2-yl)-1H-benzo[d]imidazol-2-yl)-5-(5-(piperidin-1-ylmethyl)pyridin-3-yl)-1H-pyrazolo[3,4-c]pyridine], a half-maximal effect in assay [1] (EC50) was put at 9 nM. The compound further showed an IC50 in assay [2] of 359 nM.

`CCCC(=O)Nc1cncc(-c2cc3c(-c4nc5c(-c6ccc(C)s6)cccc5[nH]4)n[nH]c3cn2)c1` [Compound 381, N-(5-(3-(4-(5-Methylthiophen-2-yl)-1H-benzo[d]imidazol-2-yl)-1H-pyrazolo[3,4-c]pyridin-5-yl)pyridin-3-yl)butyramide] yielded an EC50 in assay [1] of 79 nM. Besides, half-maximal inhibition in assay [2] (IC50) required 21.5 nM.

`Cc1ccc(-c2cccc3[nH]c(-c4n[nH]c5cnc(-c6cncc(NC(=O)C7CCCC7)c6)cc45)nc23)s1` [Compound 385, N-(5-(3-(4-(5-Methylthiophen-2-yl)-1H-benzo[d]imidazol-2-yl)-1H-pyrazolo[3,4-c]pyridin-5-yl)pyridin-3-yl)cyclopentanecarboxamide]: in assay [1], a half-maximal effect (EC50) was put at 20 nM. In assay [2], this compound yielded an IC50 of 33.1 nM.

As to `CC(=O)c1ccc(-c2cccc3[nH]c(-c4n[nH]c5cnc(-c6cccnc6)cc45)nc23)s1` [Compound 394, 1-(5-(2-(5-(Pyridin-3-yl)-1H-pyrazolo[3,4-c]pyridin-3-yl)-1H-benzo[d]imidazol-4-yl)thiophen-2-yl)ethan-1-one], the EC50 in assay [1] turned out to be 110 nM. In assay [2], this compound came in with an IC50 of 44.3 nM.

For the compound `CC(=O)c1ccc(-c2cccc3[nH]c(-c4n[nH]c5cnc(-c6cncc(NC(=O)Cc7ccccc7)c6)cc45)nc23)s1` [Compound 400, N-(5-(3-(4-(5-Acetylthiophen-2-yl)-1H-benzo[d]imidazol-2-yl)-1H-pyrazolo[3,4-c]pyridin-5-yl)pyridin-3-yl)-2-phenylacetamide], the EC50 in assay [1] was 218 nM. In assay [2], this compound had an IC50 of 42.3 nM.

In assay [1], `CC(=O)c1ccc(-c2cccc3[nH]c(-c4n[nH]c5cnc(-c6cncc(NC(=O)C7CCCCC7)c6)cc45)nc23)s1` [Compound 412, N-(5-(3-(4-(5-Acetylthiophen-2-yl)-1H-benzo[d]imidazol-2-yl)-1H-pyrazolo[3,4-c]pyridin-5-yl)pyridin-3-yl)cyclohexanecarboxamide] displayed an EC50 of 9180 nM. Moreover, in assay [2], the IC50 was found to be 150 nM.

Take `CC(C)(C)C(=O)Nc1cncc(-c2cc3c(-c4nc5c(-c6cc(F)cc(CNS(C)(=O)=O)c6)cccc5[nH]4)n[nH]c3cn2)c1` [Compound 424, N-(5-(3-(4-(3-Fluoro-5-(methylsulfonamidomethyl)phenyl)-1H-benzo[d]imidazol-2-yl)-1H-pyrazolo[3,4-c]pyridin-5-yl)pyridin-3-yl)pivalamide]: in assay [1], the EC50 is 51 nM. Besides, the half-maximal inhibitory concentration (IC50) in assay [2] stood at 19.9 nM.

On to `CS(=O)(=O)NCc1cc(F)cc(-c2cccc3[nH]c(-c4n[nH]c5cnc(-c6cncc(NC(=O)c7ccccc7)c6)cc45)nc23)c1` [Compound 427, N-(5-(3-(4-(3-Fluoro-5-(methylsulfonamidomethyl)phenyl)-1H-benzo[d]imidazol-2-yl)-1H-pyrazolo[3,4-c]pyridin-5-yl)pyridin-3-yl)benzamide], for which the EC50 in assay [1] was found to be 9 nM. The compound also yielded an IC50 in assay [2] of 172 nM.

`CCCC(=O)Nc1cncc(-c2cc3c(-c4nc5c(-c6cc(F)cc(CNS(C)(=O)=O)c6)cccc5[nH]4)n[nH]c3cn2)c1` [Compound 433, N-(5-(3-(4-(3-Fluoro-5-(methylsulfonamidomethyl)phenyl)-1H-benzo[d]imidazol-2-yl)-1H-pyrazolo[3,4-c]pyridin-5-yl)pyridin-3-yl)butyramide] showed an EC50 in assay [1] of 9 nM. In assay [2], this compound came in with a half-maximal inhibitory concentration (IC50) of 28.5 nM.

`CS(=O)(=O)NCc1cc(F)cc(-c2cccc3[nH]c(-c4n[nH]c5cnc(-c6cncc(CNCc7ccccc7)c6)cc45)nc23)c1` [Compound 439, N-(3-(2-(5-(5-((Benzylamino)methyl)pyridin-3-yl)-1H-pyrazolo[3,4-c]pyridin-3-yl)-1H-benzo[d]imidazol-4-yl)-5-fluorobenzyl)methanesulfonamide]: the EC50 in assay [1] is 9 nM. In assay [2], this compound came in with an IC50 of 40.1 nM.

In assay [1], `CS(=O)(=O)NCc1cc(F)cc(-c2cccc3[nH]c(-c4n[nH]c5cnc(-c6cncnc6)cc45)nc23)c1` [Compound 442, N-(3-Fluoro-5-(2-(5-(pyrimidin-5-yl)-1H-pyrazolo[3,4-c]pyridin-3-yl)-1H-benzo[d]imidazol-4-yl)benzyl)methanesulfonamide] returned an EC50 of 9 nM. The compound also showed an IC50 in assay [2] of 26 nM.

In assay [1], `CCNCc1cncc(-c2cc3c(-c4nc5c(-c6cc(F)cc(NCCN(C)C)c6)cccc5[nH]4)n[nH]c3cn2)c1` [Compound 448, N^1-(3-(2-(5-(5-((Ethylamino)methyl)pyridin-3-yl)-1H-pyrazolo[3,4-c]pyridin-3-yl)-1H-benzo[d]imidazol-4-yl)-5-fluorophenyl)-N^2,N^2-dimethylethane-1,2-diamine] had an EC50 of 9 nM. In addition, it took 671 nM to reach half-maximal inhibition in assay [2] (IC50).

Consider `CN(C)CCNc1cc(F)cc(-c2cccc3[nH]c(-c4n[nH]c5cnc(-c6cncc(NC(=O)C(C)(C)C)c6)cc45)nc23)c1` [Compound 450, N-(5-(3-(4-(3-((2-(Dimethylamino)ethyl)amino)-5-fluorophenyl)-1H-benzo[d]imidazol-2-yl)-1H-pyrazolo[3,4-c]pyridin-5-yl)pyridin-3-yl)pivalamide], for which, in assay [1], the EC50 was determined as 85 nM. The compound further displayed an IC50 in assay [2] of 159 nM.

In the case of `CCCCC(=O)Nc1cncc(-c2cc3c(-c4nc5c(-c6cc(F)cc(NCCN(C)C)c6)cccc5[nH]4)n[nH]c3cn2)c1` [Compound 460, N-(5-(3-(4-(3-((2-(Dimethylamino)ethyl)amino)-5-fluorophenyl)-1H-benzo[d]imidazol-2-yl)-1H-pyrazolo[3,4-c]pyridin-5-yl)pyridin-3-yl)pentanamide], the EC50 in assay [1] stood at 1060 nM. This compound gave an IC50 in assay [2] of 182 nM.

For the origin of these results see patent US10202377B2, “3-(1H-benzo[D]imidazol-2-yl)-1H-pyrazolo[3,4-C]pyridine and therapeutic uses thereof” (Samumed, LLC, priority 2014, dated 2019).
